Results as given in PMC7867085, “In Vitro and In Vivo Antitumor Activity of Indolo[2,3-b] Quinolines, Natural Product Analogs from Neocryptolepine Alkaloid” (Molecules, 2021).

How the values were obtained:
[1] = system: Ehrlich ascites carcinoma (EAC) cells; assay: In vitro cytotoxic activity, trypan blue dye exclusion; assay type: cell-based, mice; conditions: 3 h incubation at 37 °C
Procedure: The synthesized indoloquinoline analogs 6a–d were evaluated for their cytotoxic activity against Ehrlich ascites carcinoma (EAC), as depicted in Table 1. The EAC cells used in this study were supplied by National Cancer Institute, Cairo, Egypt. The cells were maintained in vivo in Swiss Albino female mice by intraperitoneal transplantation (0.2 mL of 2 × 10^6 cells/mL). EAC cells were aspirated from the peritoneal cavity of mice, washed with saline and given intraperitoneally to develop ascites tumor. Trypan blue dye exclusion technique was used to figure the viability percentage of EAC cells to assay the cytotoxic activity of the studied compounds. In brief, under completely sterile conditions, EAC cells were separated away from the mice abdomens. Hank’s balanced salt solution (HBSS) was used to wash the separated cells. Cells were put in a cooling centrifuge at 1500 rpm for 15 min; the produced granules were put back into suspension using HBSS, the mentioned steps were done in triplicate. Finally, a measured volume of RPMI 1640 was used to suspend the cells, followed by the addition of 10% fetal bovine serum, 10 µg/mL streptomycin and 100 U/mL penicillin. Consequently, the cell count was adjusted to 2 × 10^6 cells/mL from the prepared diluted cell suspension 0.2 mL was titrated in 96 flat-bottomed tissue culture plates. Serial concentrations of each tested compound were prepared and added in triplicate and incubated at 37 °C for 3 h in a 5% CO2 atmosphere. The IC50 parameter (half-maximum inhibitory concentration) was calculated using Trypan blue dye exclusion test, and then the cytotoxic effect was evaluated using control EAC cells. Thalidomide was used as a reference drug alongside the parent natural compound neocryptolepine I for comparison. Thalidomide was used as a reference drug because its mechanism of action is expected to be similar to the mechanism of action of neocryptolepine analogs as its anticancer action may be based on its antiangiogenic action, resulting from specific DNA intercalation as well as induce cell cycle arrest.
The percentage of EAC cell death of the synthesized derivatives was evaluated by trypan blue exclusion assay. In addition, the compounds 6a–d, as well as the reference drug thalidomide and the parent natural compound neocryptolepine (I), were evaluated through eight concentration levels. It is worth noting that this cytotoxicity was dose-dependent when compared to the reference drug, thalidomide and the control, which was treated with the corresponding dilutions of DMSO.
As a preparation step to perform cytotoxicity assay against the EAC cell line, thalidomide, parent neocryptolepine and the indoloquinoline compounds a 6a, 6b, 6c and 6d were dissolved in DMSO/saline (0.3:0.7) to prepare a solution of 10 mmol concentration. The stock solutions were stored at 4 °C and were used all over the assay. EAC cells were supplied by the National Cancer Institute, Cairo, Egypt. The cells were maintained in vivo in Swiss albino female mice by intraperitoneal transplantation (0.2 mL of 2 × 10^6 cells/mL). EAC cells were aspirated from the peritoneal cavity of mice, washed with saline, and given intraperitoneally to develop ascites tumor.
Trypan blue dye exclusion technique was used to figure the viability percentage of EAC cells to assay the cytotoxic activity of the studied compounds. In brief, under completely sterile conditions, EAC cells were separated away from the mice’s abdomen. Hank’s balanced salt solution (HBSS) was used to wash the separated cells. The cells were put in a cooling centrifuge at 1500 rpm for 15 min; the produced granules were put back into suspension using HBSS, the mentioned steps were done in triplicate. Finally, a measured volume of RPMI 1640 was used to suspend the cells, followed by the addition of 10% fetal bovine serum, 10 µg/mL streptomycin and 100 U/mL penicillin and the cell count was adjusted to 2 × 10^6 cells/mL. […]

EAC-induced solid tumor = assay: Antitumor activity: reduction in tumor volume of EAC-induced solid tumor; assay type: in vivo, Swiss female albino mice; conditions: day 12 (last day of treatment), 100 mg/kg SC daily for five consecutive days
Procedure: The aim of this study is to characterize indoloquinoline analogs 6a–d curative ability and antineoplastic activity on solid-form of Ehrlich tumors. Tumor volume is a potential biomarker for Ehrlich tumor development. The induction of solid tumor in Swiss female mice performed by inserting 0.2 mL of EAC cells (2 × 10^6 cell/mL) subcutaneously (SC) between thighs of the lower limb. When the tumor volume reached 15–20 mm^3 (Seven days after tumor induction), the mice were randomly divided into 6 groups (n = 10), five groups were injected subcutaneously with thalidomide and indoloquinoline analogs 6a–d (100 mg/kg) daily for five consecutive days, the sixth group (positive control group) were given DMSO/saline (0.3/0.7). The 8th day is considered the zero days of treatment. The tumor volume was daily measured with a vernier caliper for four days stated from day eight.
Thalidomide and indoloquinoline derivatives 6a–d were tested for their antitumor effect; the test was done in vivo on mice-bearing solid tumors. The induction of solid tumor in Swiss female mice performed by inserting 0.2 mL of EAC cells (2 × 10^6 cell/mL) subcutaneously (SC) between thighs of the lower limb. Seven days after tumor induction, animals were divided into 6 groups (n = 10), five groups were injected subcutaneously with 100 mg/kg of tested compounds daily for 5 consecutive days, the sixth group (positive control group) were given 0.3 DMSO/0.7 H2O. On day twelve, after carrying out EAC cells, mice were sacrificed, dissected, and change in tumor mass was evaluated by measuring the developed tumor mass volume using the formula [45, 46]:Tumor volume (mm^3) = 0.52 × length × (width)^2.(1)

[2] = system: splenic lymphocytes of normal mice; assay: Splenic lymphocyte count in normal mice; assay type: in vivo, Swiss female albino mice; conditions: 100 mg/kg SC for 5 days
Procedure: The difference in the number of splenic lymphocytes between the study groups, including groups given indoloquinoline derivatives, control group, and groups with a tumor, were evaluated. Normal mice administered indoloquinoline derivatives at a dose of 100 mg/kg for 5 constitutive days subcutaneously reported statistical similarities with the untreated normal mice group regarding the count of splenic lymphocytes (Table 6).
Under sterile conditions, the spleens were eliminated, and the single cell suspension was made in RPMI 1640 medium. Splenic lymphocytes were purified as described earlier. Viable splenic lymphocytes were counted in a hemocytometer by trypan blue exclusion test and used for further analysis.
During the study, female Swiss albino mice (normal, treated, and untreated) were anesthetized. Under sterile conditions, after scattering 70% alcohol on the abdominal region, the spleen was removed and then injected with a minor amount of PBS. Spleen was pressed across the fine mesh of the tissue grinder. After centrifuging the produced cell suspension at 1000 rpm for 5 min, the supernatant was discarded, and the cells were washed at room temperature by centrifugation in PBS twice. Trypan blue extrusion method was used to evaluate cell viability, and a phase-contrast microscope was used for cell counting. The experiment was done in tripartite.

For “5(5-Methyl-5H-indolo[2,3-b] quinolin-11-ylamino) Pyrimidine-2,4(1H,3H)-dione [Compound 6c]”, the IC50 [1] was 0.33 nM, the “reduction percentage in tumor volume” value (EAC-induced solid tumor) was 93.29% and the “Splenic Lymphocyte Number” value [2] was 13.29 ± 1.12 10^6/mL.

In the case of `Cn1c2nc3ccccc3c-2c(Nc2ccc(Br)cc2F)c2ccccc21` [Compound 6a, N-(4-Bromo-2-fluorophenyl)-5-methyl-5H-indolo[2,3-b] Quinolin-11-amine], the IC50 ([1]; Mus musculus, Ehrlich) is reported as 0.17 nM, the “reduction percentage in tumor volume” value (EAC-induced solid tumor) is reported as 90.58% and the “Splenic Lymphocyte Number” value [2] is reported as 13.3 ± 1.08 10^6/mL.

In the case of “5-Methyl-N-(4-methylpiperazin-1-yl)-5H-indolo[2,3-b] Quinolin-11-amine [Compound 6d]”, the IC50 [1] is reported as 0.15 nM, the “reduction percentage in tumor volume” value (EAC-induced solid tumor) is reported as 94.90% and the “Splenic Lymphocyte Number” value [2] is reported as 12.8 ± 0.04 10^6/mL.

With `Cn1c2nc3ccccc3c-2c(NCCc2c[nH]c3ccccc23)c2ccccc21` [Compound 6b, N-(2-(1H-Indol-3-yl)ethyl)-5-methyl-5H-indolo[2,3-b] Quinolin-11-amine] the IC50 ([1]; Mus musculus, Ehrlich) was 0.064 nM, the “reduction percentage in tumor volume” value (EAC-induced solid tumor) was 87.37% and the “Splenic Lymphocyte Number” value [2] was 12.97 ± 0.65 10^6/mL.
